Here are results for three substances from patent US12370239B2, “Microvascular blood flow decreasing agent and use thereof” (priority 2016, dated 2025).

“Also recorded” adds a separate entry of the source.

Holding throughout (type): in vivo, human
One data set concerns BCR-ABL mRNA. The data set can be described thus: % IS of BCR-ABL mRNA, marker for chronic myeloid leukemia, before and after endovascular therapy. Conditions: Patient D, after endovascular therapy for bladder cancer (time point 2 to 3, FIG. 4). The method, then:
(§1) This patient was subjected to an endovascular therapy using nivolumab 10 mg, bortezomib 0.7 mg, etanercept 25 mg, maxacalcitol 10 μg, and thrombomodulin 3200 U, and was marked as CR by such treatment. […] FIG. 4 is a graph showing the transition of % IS of BCR-ABL mRNA before and after the endovascular therapy for the […] in this patient.

The subject of a further data set is tumor. The data set can be described thus: Endovascular therapy case reports, tumor response (Example 3). Set-up: key: CR indicates an elimination of tumor from the imaging; PR indicates >50% reduction of tumor diameter; MR indicates >30% reduction of tumor diameter; NC indicates <30% reduction of tumor diameter; PD indicates an increase in tumor diameter. The method, then: Short-term tumor-reducing effect in 1 month after the administration was assessed by MRI or CT imaging. In the table, CR indicates an elimination of tumor from the imaging, PR indicates >50% reduction of tumor diameter, MR indicates >30% reduction of tumor diameter, NC indicates <30% reduction of tumor diameter, and PD indicates an increase in tumor diameter.
To Patient A who had suffered from breast cancer, an endovascular therapy was carried out using nivolumab 10 mg, pertuzumab 60 mg, bortezomib 0.7 mg, thrombomodulin 3200 U and maxacalcitol 10 μg. This patient was marked as CR by such treatment.
To Patient B who had suffered from malignant fibrous histiocytoma in right femur, an endovascular therapy was carried out using 20 mg of nivolumab. This patient was marked as CR after 3 treatments using 20 mg of nivolumab per each administration.
To Patience C who had suffered from hepatitis C and had developed liver cancer, an endovascular therapy was carried out using nivolumab 10 mg, bortezomib 0.7 mg, etanercept 25 mg, maxacalcitol 10 μg and imipenem/cilastatin sodium 500 mg/body for each administration. This patient was marked as CR after two treatments.
as §1

The next data set has as its system microvasculature. The data set is described as follows: Contrast imaging of microvascular blood flow / vessel density after infusion. The method, then: When it is used for decreasing microvascular blood flow according to the present invention, the dose of the immune checkpoint inhibitor to be administered will vary depending on the type of the immune checkpoint inhibitor to be administered, though a skilled person can calculate an appropriate amount.
It was shown that each of the immune checkpoint inhibitors causes a clear change in tumor hemodynamics by single-agent administration 2 to 3 minutes after the infusion from the tumor vessel. Moreover, an immediate relief from cancerous pain by administration is also confirmed. Adding to these, their original effect of inhibiting immune checkpoint can also be expected, providing a prospective of relatively longer lasting effect by administration of single agent.
In all cases, fat suppression T2-weighted MRI image was obtained before treatment to select target vessels. 3Fr intraarterial-indwelling sheath (Medikit Co., Ltd.) was inserted from femoral artery by Seldinger method, allowed to reach the target vessel using 3Fr angiography catheter (Medikit Co., Ltd.), Radifocus 0.032″ external diameter guide wire (TERUMO Corp.), and microcatheter ASAHI Tellus C3, ASAHI Meister 0.016″ micro guide wire (ASAHI INTECC Co., Ltd.) as appropriate, then abnormal vascular networks are identified by contrast imaging. […]

In data set [1] the test system is blood vessels at a site having prolonged pain. The data set can be described thus: Endovascular therapy to blood vessels at a site having prolonged pain, symptom improvement and side effects (Example 4). Further details: key to Effect (improvement in symptoms): an exacerbation in symptom=0; no change=1; an improvement in symptom and easiness in dairy living=2; almost satisfactory improvement=3; Side effect: scale not given here. As for the experimental part:
To 14 subject cases indicated in the table below who had blood vessels at a site having prolonged pain, endovascular therapy was carried out as follows, using pembrolizumab.
In all cases, fat suppression T2-weighted MRI image was obtained before treatment to select target vessels. 3Fr intraarterial-indwelling sheath (Medikit Co., Ltd.) was inserted from femoral artery by Seldinger method, allowed to reach the target vessel using 3Fr angiography catheter (Medikit Co., Ltd.), Radifocus 0.032″ external diameter guide wire (TERUMO Corp.), and microcatheter ASAHI Tellus C3, ASAHI Meister 0.016″ micro guide wire (ASAHI INTECC Co., Ltd.) as appropriate, then abnormal vascular networks are identified by contrast imaging.
Subsequently, as shown in the table, pembrolizumab 1 to 4 mg/body (mean=1.86 mg/body, median=2 mg/body) was mixed with the combined drugs in 100 ml of physiological saline, stirred with a stirrer while being infused into the target vessel in an amount such that a sufficient decrease in abnormal vessel density was confirmed.
The level of post-treatment improvement in symptoms was assessed after 3 weeks or longer. A stepwise assessment was done as follows: an exacerbation in symptom=0, no change=1, an improvement in symptom and easiness in dairy living=2, almost satisfactory improvement=3.

Consider nivolumab, for which the “% IS of BCR-ABL mRNA” value with BCR-ABL mRNA is reported as “decreased”. Further, the tumor response entry in the data set with tumor (Patient A, breast cancer, nivolumab 10 mg with pertuzumab 60 mg, bortezomib 0.7 mg, thrombomodulin 3200 U, maxacalcitol 10 μg) is recorded as “CR”; with tumor (Patient B, malignant fibrous histiocytoma in right femur (metastasis to lung), after 3 treatments, 20 mg of nivolumab per administration), “CR”; with tumor (Patient C, liver cancer (hepatitis C), stage II, after two treatments, nivolumab 10 mg with bortezomib 0.7 mg, etanercept 25 mg, maxacalcitol 10 μg, imipenem/cilastatin sodium 500 mg/body) it was “CR”; in the data set on tumor (Patient D, bladder cancer (chronic myeloid leukemia), stage II, nivolumab 10 mg with bortezomib 0.7 mg, etanercept 25 mg, maxacalcitol 10 μg, thrombomodulin 3200 U) it was “CR”.
Turning to ipilimumab, the “tumor vessel density-decreasing effect” value with microvasculature (by itself, injection into nutrient artery) is recorded as “strong tumor vessel density-decreasing effect”.
On to pembrolizumab, for which the abnormal microvascular density entry in the data set with microvasculature (Cases 7 and 8, 2 minutes after drug administration (FIGS. 5 and 6)) was “significant decrease in abnormal microvascular density”. The Side effect in data set [1] (Case 1, Left gonarthritis, P 1 mg/body + imp/cs 500, bv 50, bort 0.35, maxa 10) is 0; in data set [1] (Case 2, Elbow joint RA, P 4 mg/body + eta 25, bort 0.35, imp/cs 500), 0; in data set [1] (Case 3, Hip osteoarthritis, P 3 mg/body + eta 25, bort 0.35, maxa 10, imp/cs 501), 0; in data set [1] (Case 4, Left shoulder pain, P 3 mg/body + bort 0.35), 0; in data set [1] (Case 5, Lumbar spinal stenosis, P 2 mg/body + bort 0.36), 0; in data set [1] (Case 6, Right foot Lisfranc joint injury, P 1 mg/body + bv 50, bort 0.35, eta 25, maxa 10) it was 0. Moreover, the Side effect came to 0 in data set [1] (Case 7, Low back pain after spinal compression fracture, P 1 mg/body + bort 0.35, eta 25, maxa 10, reco 3200); 0 in data set [1] (Case 8, Right knee RA, P 2 mg/body + bort 0.35, eta 25, reco 3200); 0 in data set [1] (Case 9, Bilateral knee joint replacement postoperation, P 2 mg/body + eta 25, imp/cs 500); 0 in data set [1] (Case 10, Piriformis syndrome, P 1 mg/body + bort 0.35, eta 25, reco 3200); 0 in data set [1] (Case 11, Left Achilles peritendinitis, P 1 mg/body); 0 in data set [1] (Case 12, Bilateral gonarthrosis, P 2 mg/body). For the same substance, the Side effect in data set [1] (Case 13, Left gonarthrosis, foot arthritis, P 2 mg/body) is 0; in data set [1] (Case 14, Right foot joint MFP syndrome, P 1 mg/body), 0. The “Effect (improvement in symptoms)” value in data set [1] (Case 1, Left gonarthritis, P 1 mg/body + imp/cs 500, bv 50, bort 0.35, maxa 10, after 3 weeks or longer) turned out to be 1; in data set [1] (Case 2, Elbow joint RA 5 y, P 4 mg/body + eta 25, bort 0.35, imp/cs 500, after 3 weeks or longer), 3; in data set [1] (Case 3, Hip osteoarthritis 5 y, P 3 mg/body + eta 25, bort 0.35, maxa 10, imp/cs 501, after 3 weeks or longer), 3; in data set [1] (Case 4, Left shoulder pain, P 3 mg/body + bort 0.35, after 3 weeks or longer), 3; in data set [1] (Case 5, Lumbar spinal stenosis 5 y, P 2 mg/body + bort 0.36, after 3 weeks or longer) it was 2; in data set [1] (Case 6, Right foot Lisfranc joint injury, P 1 mg/body + bv 50, bort 0.35, eta 25, maxa 10, after 3 weeks or longer), 3. Moreover, the “Effect (improvement in symptoms)” value in data set [1] (Case 7, Low back pain after spinal compression fracture 1.5 y, P 1 mg/body + bort 0.35, eta 25, maxa 10, reco 3200, after 3 weeks or longer) was 2; in data set [1] (Case 8, Right knee RA 3.8 y, P 2 mg/body + bort 0.35, eta 25, reco 3200, after 3 weeks or longer), 2; in data set [1] (Case 9, Bilateral knee joint replacement postoperation 1.5 y, P 2 mg/body + eta 25, imp/cs 500, after 3 weeks or longer) it was 1; in data set [1] (Case 10, Piriformis syndrome, P 1 mg/body + bort 0.35, eta 25, reco 3200, after 3 weeks or longer) it was 2; in data set [1] (Case 11, Left Achilles peritendinitis, P 1 mg/body, no combined drug printed, after 3 weeks or longer) it was 3; in data set [1] (Case 12, Bilateral gonarthrosis, P 2 mg/body, no combined drug printed, after 3 weeks or longer), 2. Besides, the “Effect (improvement in symptoms)” value was found to be 1 in data set [1] (Case 13, Left gonarthrosis, foot arthritis, P 2 mg/body, no combined drug printed, after 3 weeks or longer) and 2 in data set [1] (Case 14, Right foot joint MFP syndrome, P 1 mg/body, no combined drug printed, after 3 weeks or longer). Moreover, the “side effects considered to be caused by the therapy” value in data set [1] (all 14 cases, including minor side effects such as transient fever) was “No side effect; also recorded: without any side effects”. In addition, the “cases with rating of 2 or more (improvement in symptom)” value in data set [1] (out of 14 cases, pembrolizumab 1 to 4 mg/body into target vessel, after 3 weeks or longer) amounted to 11. The chronic pain result in data set [1] (selective arterial infusion to the site of pain, 1 to 2 mg/body, diluted at 1 to 2% in physiological saline) is on record as “cancellation of chronic pain”.
